The results in this text go back to patent US6777176B1, “Target system” (priority 1997, dated 2004).

Broadly, the IC50 is the concentration needed to halve the response being measured.

Residues, ends and D or L forms follow the SMILES beside them. No end group written: not given here.

The first assay relates to E. coli K-12 UT580. In words: Growth inhibition assay, filter discs on LB soft agar. In kind it is cell-based. As to conditions: area of clear zone around filter disc, over night at 37° C. On the procedure: FIG. 4. Growth inhibition of E. coli K12 UT580.
Growth inhibition assay. […] To each filter was added 10 μl of one of the different peptide stock solutions (20 μM to 80 μM). […] Compare FIG. 4 and Table I on the following two pages.
With GLRGKTRVHYLVLG [peptide 1], the “growth inhibition (area/μM)” value is listed as 3.65 area/μM.
RHITLF [compound 15, RHITLF]: the “growth inhibition (area/μM)” value is reported as 0.27 area/μM.
Regarding RHWSIF [compound 11, RHWSIF], the “growth inhibition (area/μM)” value turned out to be 1.30 area/μM.
On the same count and under the same terms, the result for RHYLLF [compound 13, RHYLLF] reads 0.83 area/μM; that for RIHFIPRRGR [compound 7], 0.77 area/μM; that for RLHYLF [compound 8, RLHYLF], 0.90 area/μM.
The same measure, in the same setting: the result for SGRKSTRVHHWLLVL [compound 2] reads 3.05 area/μM.

Tested on in another assay: not listed separately
The assay can be described thus: Growth inhibition MIC (Table 2).
Conditions: not given
Format: cell-based.
In the case of XXKKWHLRKRXX [compound 23], the “growth inhibition MIC” value is 44.7 µM.

For a further assay, the target named is T1, enzyme I (Escherichia coli, UniProt P08839).
T1 construct: made in house
The assay can be described thus: biochemical. Format: biochemical, E. coli. As to conditions: in vitro PTS activity, purified HPr, enzyme I and IIGlcNAc, 30 min at 37° C.; Table I; read-out: inhibition IC50. The text has this: (d) Inhibition of in vitro PTS activity. The inhibitory activity of soluble compounds can be measured quantitatively in the sugar phospbotransferase assay in the presence of the purified PTS proteins and with [^14C]GlcNAc ([^14C]N-acetyl-glucosamine) or [^14C]Glc ([[…] as terminal phosphate acceptor (Erni et al., 1982 J. Biol. Chem. 257:13726-13730).
Inhibition of phosphotransferase activity by soluble peptides. This assay measures the inhibition of enzyme I dependent sugar phosphorylation activity. […] The purified N-acetylglucosamine transporter (II^GlcNAc) of E. coli (Mukhija and Erni, 1996) was used as the sugar specific component. The reaction mixture contained per 100 μl, 100 μg phosphatidyl glycerol from egg yolk (Sigma), 50 mM KPi, pH 7.5, 2.5 mM dithiothreitol, 2.5 mM NaF, 5 MM MgCl2, 1 mM phosphoenolpyruvate (potassium salt, Sigma), 0.5 mM [U-^14C]GlcNAc (New England Nuclear; 56.3 mCi/mmol, diluted to 1000 cpm/nmol), and 3 μM each of purified HPr and enzyme I (Mao et al., 1995 J. Biol. Chem. 270:5258-5265). The reaction was started by addition of 0.1 μg of II^GlcNAc. After incubation for 30 min at 37° C., the reaction was stopped by adding 1 ml ice-cold water. GlcNAc-6-Phosphate was separated from free Glc-NAc by anion-exchange chromatography on AG-1-X2 (50-100 mesh, Biorad). Activity is expressed as nmoles of sugar-P formed after 30 min. The HPr concentration was adjustedsuch that it was rate limiting in the overall phosphotransferase reaction. The inhibitory peptides were added to concentrations of 25 μm to 10 mM. Phosphorylation of GlcNAc in the absences of peptide was taken as 100%.
On to `CSCC[C@H](N)C(=O)N[C@@H](CCCNC(=N)N)C(=O)N[C@@H](CC(C)C)C(=O)N[C@@H](CC(C)C)C(=O)N[C@@H](CCCCN)C(=O)N[C@H](C(=O)N[C@@H](CC(C)C)C(=O)N[C@@H](CS)C(=O)N[C@@H](Cc1ccccc1)C(=O)NCC(=O)N[C@@H](CC(C)C)C(=O)N[C@@H](CS)C(=O)NCC(=O)O)[C@@H](C)O` [compound 18] (H-MRLLKTLCFGLCG-OH; N-terminus and C-terminus assumed), for which the IC50 is 3500 µM.
Regarding `CSCC[C@H](NC(C)=O)C(=O)N[C@@H](CCCNC(=N)N)C(=O)N[C@@H](CC(C)C)C(=O)N[C@@H](CC(C)C)C(=O)N[C@@H](CCCCN)C(=O)N[C@H](C(=O)N[C@@H](CC(C)C)C(=O)N[C@@H](CS)C(=O)N[C@@H](Cc1ccccc1)C(=O)N[C@H](C(=O)NCC(=O)N[C@@H](CC(C)C)C(=O)N[C@@H](CS)C(=O)NCC(=O)O)C(C)C)[C@@H](C)O` [compound 19] (Ac-MRLLKTLCFVGLCG-OH), the IC50 is over 10000 µM.

Staying with this assay, now noted: peptides from support-based combinatorial libraries; Table 2.
Take KKFALRK [compound 21]: the “inhibition IC50” value is reported as “none”.

Another assay addresses T2, PTS Enzyme I (Escherichia coli, UniProt P08839).
T2 construct: made in house
The assay can be described thus: Inhibition of sugar uptake assay (enzyme I dependent GlcNAc phosphorylation), low molecular weight compounds. Format: biochemical, E. coli. As to conditions: compounds at 25-200 μM, DMSO control taken as 100%; read-out: Activity against PTS Enzyme I IC50. The text has this:
To find inhibitors of Enzyme I of the PTS by high throughput screening, an in vitro assay based on spectrophotometric read out at 340 nm has been set up. The assay comprises of three major components: purified enzyme I in catalytic amounts, PEP as the phosphoryl donor substrate, and purified HPr as the phosphoryl acceptor substrate. The assay couples the formation of pyruvate from PEP with its reduction to lactate, catalyzed by lactate dehydrogenase. The disappearance of NADH, cofactor required by lactate dehydrogenase, is monitored colorimetrically at 340 nm. The assay is done in a U-shaped microtiter plate format, and quantitation is done using microplate absorbance reader.
Reaction mixtures, each 100 μl, are used in the assay. Each reaction mixture contains 0.8 mM PEP, 0.2 mM NADH, 3 μg lactate dehydrogenase (Boehringer Mannheim), 50 mM KPi pH=7.5, 2.5 mM dithiothreitol, 2.5 mM NaF, 5 mM MgCl2, and between 25 and 200 μM of one of the organic compounds to be tested. […]
Once the inhibitors of Enzyme I of the PTS are identified by high throughput screening, inhibition of enzyme I dependent sugar phosphorylation activity is measured with the inhibition of sugar uptake assay detailed below.
This assay measures the inhibition of enzyme I dependent sugar phosphorylation activity. […] Activity is expressed as nmoles of sugar-P formed after 30 min. […]
As to `O=C1NN=C(c2ccccc2)CC1Cc1ccc(O)cc1` (centres unmarked) [4-(4-Hydroxy-benzyl)-6-phenyl-4,5-dihydro-2H-pyridazin-3-one], the IC50 amounted to 20 µM.
On the same count and under the same terms, the result for `Cc1cc(-c2onc(C)c2C(=O)Sc2ccc(Cl)cc2)no1` [5,3′-Dimethyl-[3,5′]-biisoxazolyl-4′-carbothioic acid-S-(4-chloro-phenyl) ester] reads 50 µM.

For a further assay, the target named is T1, enzyme I. The assay can be described thus: Pyruvate formation coupled to lactate dehydrogenase (uncoupling / phosphatase activity). In kind it is biochemical, E. coli. The conditions noted are these: Table 2. The source says: The assay can be performed in microtiter plates and quantitated with a microplate photoreader. Another assay to monitor phosphatase activity of soluble compounds is based on the detection of pyruvate which is continuously produced from phosphoenolpyruvate whenever enzyme I is dephosphorylated. The enzyme I-specific phosphatase activity of soluble compounds can be detected from the pyruvate burst. The rate of pyruvate formation is monitored with lactate dehydrogenase and NADH. The assay can be performed in microtiter plates and quantitated with a microplate photoreader.
Regarding “HPr protein: small (9 kD) soluble phosphorylcarrier protein HPr, natural phosphoryl acceptor of enzyme I”, the “uncoupling P1/peptide/h” value is recorded as 2.70 P1/peptide/h.
Same read-out and setting: the result for KGWHKRKK [compound 25] reads 0.23 P1/peptide/h.
On the same count and under the same terms, the result for KKFDLRK [compound 22, KKFDLRK] reads 0.05 P1/peptide/h; that for KKFHIRKR [compound 28], 0.31 P1/peptide/h; that for KKFHLRK [compound 20, KKFHLRK], 0.49 P1/peptide/h.
Regarding KKWHKRKK [compound 27], the “uncoupling P1/peptide/h” value worked out at 0.215 P1/peptide/h.
Same read-out and setting: the result for KKWHLRKR [compound 24] reads 0.3 P1/peptide/h.
KKWHRRKK [compound 26]: the “uncoupling P1/peptide/h” value is recorded as 0.29 P1/peptide/h.
Still for that read-out and setting: the result for XXKKWHLRKRXX [compound 23] reads 0.43 P1/peptide/h.

The same assay, now with this note: μM NADH consumed per μM peptide per one hour multiplied by the IC50 (μM).
As to Ac-DGARLHYLF [compound 10], the “uncoupling P1/peptide (x IC50/h)” value is given as 15.2 x IC50/h.
The same measure, in the same setting: the result for DGARLHYLF [compound 9] reads 132.3 x IC50/h; that for GLRGKTRVHYLVLG [peptide 1], 3.2 x IC50/h.
As to KISRHGKRGK [compound 5], the “uncoupling P1/peptide (x IC50/h)” value is listed as 1.9 x IC50/h.
Turning to KISRHGRPTG [compound 6], the “uncoupling P1/peptide (x IC50/h)” value came out at 479.3 x IC50/h.
Same read-out and setting: the result for KMSRHRKPGA [compound 3] reads 22.2 x IC50/h; that for MSRHRN [compound 16, MSRHRN], 143.8 x IC50/h.
Still for that read-out and setting: the result for RIHFIPRRGR [compound 7] reads 39.6 x IC50/h; that for RLHYLF [compound 8, RLHYLF], 64.2 x IC50/h; that for SGRKSTRVHHWLLVL [compound 2], 6.6 x IC50/h.
